Measured values taken from patent US11051515B2, “3-acyl-benzamides and their use as herbicides” (Bayer Aktiengesellschaft, priority 2017, dated 2021).

Assays:
PHBPU [1] = assay: Post-emergence action against PHBPU; assay type: in vivo, Pharbitis purpurea; conditions: post-emergence, dosage 80 g/ha
How it was run: (§1)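 Weeds grown in sandy loam in greenhouse, treated at one-leaf stage (2–3 weeks after sowing) with WP or EC formulations sprayed as aqueous suspension/emulsion at 600 to […] water with 0.2% wetting agent. Visual rating after about 3 weeks versus untreated controls, as % herbicidal action (100% = plants dead, 0% = like control).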

STEME [2] = assay: Post-emergence action against STEME; assay type: in vivo, Stellaria media; conditions: post-emergence, dosage 80 g/ha
How it was run: as §1

ECHCG [3] = assay: Post-emergence action against ECHCG; assay type: in vivo, Echinochloa crus-galli; conditions: post-emergence, dosage 80 g/ha, visual assessment about 3 weeks after treatment vs untreated controls
How it was run: as §1

ECHCG [4] = assay: Pre-emergence action against ECHCG; assay type: in vivo, Echinochloa crus-galli; conditions: pre-emergence, dosage 320 g/ha, scored visually after 3 weeks vs untreated controls
How it was run: (§2)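 Seeds sown in sandy loam in wood-fiber pots and covered with soil. Greenhouse growth; visual damage scored after 3 weeks versus untreated controls (100% = dead, 0% = like control).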

VIOTR [5] = assay: Post-emergence action against VIOTR; assay type: in vivo, Viola tricolor; conditions: post-emergence, dosage 80 g/ha
How it was run: as §1

PHBPU [6] = assay: Pre-emergence action against PHBPU; assay type: in vivo, Pharbitis purpurea; conditions: Dosage 320 g/ha, pre-emergence
How it was run: as §2

ABUTH [7] = assay: Post-emergence action against ABUTH; assay type: in vivo, Abutilon theophrasti; conditions: post-emergence, dosage 80 g/ha, visual assessment about 3 weeks after treatment vs untreated controls
How it was run: as §1

VERPE [8] = assay: Pre-emergence action against VERPE; assay type: in vivo, Veronica persica; conditions: Dosage 320 g/ha, pre-emergence
How it was run: as §2

VERPE [9] = assay: Post-emergence action against VERPE; assay type: in vivo, Veronica persica; conditions: dosage 80 g/ha
How it was run: as §1

AMARE [10] = assay: Post-emergence action against AMARE; assay type: in vivo, Amaranthus retroflexus; conditions: post-emergence, dosage 80 g/ha, visual assessment about 3 weeks after treatment vs untreated controls
How it was run: as §1

STEME [11] = assay: Pre-emergence action against STEME; assay type: in vivo, Stellaria media; conditions: Dosage 320 g/ha, pre-emergence
How it was run: as §2

SETVI [12] = assay: Pre-emergence action against SETVI; assay type: in vivo, Setaria viridis; conditions: pre-emergence, dosage 320 g/ha, scored visually after 3 weeks vs untreated controls
How it was run: as §2

ALOMY = assay: Pre-emergence action against ALOMY; assay type: in vivo, Alopecurus myosuroides; conditions: dosage 320 g/ha; pre-emergence; scored visually after 3 weeks vs untreated controls; 100% = plants have died, 0% = like control plants
How it was run: as §2

MATIN [13] = assay: Pre-emergence action against MATIN; assay type: in vivo, Matricaria inodora; conditions: Dosage 320 g/ha, pre-emergence
How it was run: as §2

AMARE [14] = assay: Pre-emergence action against AMARE; assay type: in vivo, Amaranthus retroflexus; conditions: pre-emergence, dosage 320 g/ha, scored visually after 3 weeks vs untreated controls
How it was run: as §2

CYPES [15] = assay: Pre-emergence action against CYPES; assay type: in vivo, Cyperus esculentus; conditions: pre-emergence, dosage 320 g/ha, scored visually after 3 weeks vs untreated controls
How it was run: as §2

SETVI [16] = assay: Post-emergence action against SETVI; assay type: in vivo, Setaria viridis; conditions: post-emergence, dosage 80 g/ha, visual assessment about 3 weeks after treatment vs untreated controls
How it was run: as §1

AVEFA = assay: Pre-emergence action against AVEFA; assay type: in vivo, Avena fatua; conditions: dosage 320 g/ha, scored visually after 3 weeks vs untreated controls
How it was run: as §2

VIOTR [17] = assay: Pre-emergence action against VIOTR; assay type: in vivo, Viola tricolor; conditions: Dosage 320 g/ha, pre-emergence
How it was run: as §2

POLCO [18] = assay: Post-emergence action against POLCO; assay type: in vivo, Polygonum convolvulus; conditions: post-emergence, dosage 80 g/ha
Experimental: Seeds of monocotyledonous and dicotyledonous weed and crop plants are laid out in sandy loam soil in wood-fiber pots, covered with soil and cultivated in a greenhouse under good growth conditions. 2 to 3 weeks after sowing, the test plants are treated at the one-leaf stage. The compounds of the invention, formulated in the form of wettable powders (WP) or as emulsion concentrates (EC), are then sprayed onto the green parts of the plants in the form of an aqueous suspension or emulsion at a water application rate equating to […], with addition of 0.2% wetting agent. After the test plants have been left to stand in the greenhouse under optimal growth conditions for about 3 weeks, the action of the preparations is assessed visually in comparison to untreated controls (herbicidal action in percent (%): 100% activity=the plants have died, 0% activity=like control plants). […] At the same time, inventive compounds leave Gramineae crops such as barley, wheat, rye, millet/Sorghum, corn or rice virtually undamaged when applied post-emergence, even at high active ingredient dosages. In addition, some substances are also harmless to dicotyledonous crops such as soya, cotton, oilseed rape, sugar beet or potatoes. Some of the compounds according to the invention have high selectivity and are therefore suitable for controlling unwanted vegetation in agricultural crops by the post-emergence method. The data of Tables B18 to B34 below illustrate, in an exemplary manner, the […] herbicidal action of the compounds according to the invention, the herbicidal activity being stated in percent.

MATIN [19] = assay: Post-emergence action against MATIN; assay type: in vivo, Matricaria inodora; conditions: post-emergence, dosage 80 g/ha, visual assessment about 3 weeks after treatment vs untreated controls
How it was run: as §1

ABUTH [20] = assay: Pre-emergence action against ABUTH; assay type: in vivo, Abutilon theophrasti; conditions: pre-emergence, dosage 320 g/ha, scored visually after 3 weeks vs untreated controls
How it was run: as §2

CYPES [21] = assay: Post-emergence action against CYPES; assay type: in vivo, Cyperus esculentus; conditions: post-emergence, dosage 80 g/ha, visual assessment about 3 weeks after treatment vs untreated controls
How it was run: as §1

POLCO [22] = assay: Pre-emergence action against POLCO; assay type: in vivo, Polygonum convolvulus; conditions: Dosage 320 g/ha, pre-emergence
Source text: Seeds of monocotyledonous and dicotyledonous weed plants and crop plants are laid out in sandy loam soil in wood-fiber pots and covered with soil. The compounds of the invention, formulated in the form of wettable powders (WP) or as emulsion concentrates (EC), are then applied to the surface of the covering soil in the form of an aqueous suspension or emulsion at a water application rate equating to […], with addition of 0.2% wetting agent. After the treatment, the pots are placed in a greenhouse and kept under good growth conditions for the trial plants. The damage to the test plants is scored visually after a test period of 3 weeks by comparison with untreated controls (herbicidal activity in percent (%): 100% activity=the plants have died, 0% activity=like control plants).

SMILES | Post-emergence action against PHBPU (PHBPU [1]) | Post-emergence action against STEME (STEME [2]) | Post-emergence action against ECHCG (herbicidal action in percent) (ECHCG [3]) | Pre-emergence action against ECHCG (herbicidal activity) (ECHCG [4]) | Post-emergence action against VIOTR (VIOTR [5]) | Pre-emergence action against PHBPU (PHBPU [6]) | Post-emergence action against ABUTH (herbicidal action in percent) (ABUTH [7]) | Pre-emergence action against VERPE (VERPE [8]) | Post-emergence action against VERPE (VERPE [9]) | Post-emergence action against AMARE (herbicidal action in percent) (AMARE [10]) | Pre-emergence action against STEME (STEME [11]) | Pre-emergence action against ALOMY (herbicidal activity in percent) (ALOMY) | Pre-emergence action against MATIN (MATIN [13]) | Pre-emergence action against AMARE (herbicidal activity) (AMARE [14]) | Pre-emergence action against CYPES (herbicidal activity) (CYPES [15]) | Post-emergence action against SETVI (herbicidal action in percent) (SETVI [16]) | Pre-emergence action against AVEFA (herbicidal activity) (AVEFA) | Pre-emergence action against VIOTR (VIOTR [17]) | Post-emergence action against MATIN (herbicidal action in percent) (MATIN [19]) | Pre-emergence action against ABUTH (herbicidal activity) (ABUTH [20]) | further results
CCCn1nnnc1NC(=O)c1ccc(C(F)(F)F)c(C(C)=O)c1Cl [3-137] | 100 | 100 | 90% | 100% | 100 | 100% | 90% | 90% | 90 | 100% | 100% | 90% | 100% | 100% | 90% | 100% | 80% | 100% | 100% | 100% | SETVI (Table B8, pre-emergence herbicidal activity) (SETVI [12]): 90%; Post-emergence action against POLCO (POLCO [18]): 90
CCCn1nnnc1NC(=O)c1ccc(C(F)(F)F)c(C(C)=O)c1SC [3-58] | 90 | 100 | 100% | 100% | 100 | – | 100% | 90% | 80 | 100% | 90% | 90% | 100% | 100% | 90% | 80% | 80% | 100% | 100% | 100% | Post-emergence action against CYPES (herbicidal action in percent) (CYPES [21]): 100%; Pre-emergence action against POLCO (POLCO [22]): 80%
CCCn1nnnc1NC(=O)c1ccc(C(F)(F)F)c(C(=O)C2CC2)c1Br [3-197] | 100 | 100 | 90% | 100% | 100 | 90% | 90% | 100% | 80 | 100% | 100% | 90% | 100% | 100% | 80% | 90% | 90% | 100% | 90% | 100% | Post-emergence action against CYPES (herbicidal action in percent) (CYPES [21]): 90%; SETVI (Table B8, pre-emergence herbicidal activity) (SETVI [12]): 100%
